The values below come from BindingDB's records for doi:10.1074/jbc.M110.107094 (Sanford-Burnham Medical Research Institute, 2010).

Holding throughout (assay): Inhibition Assay
Common to all, as to details: 37 °C

Assay [1] has as its target 72 kDa type IV collagenase (Homo sapiens, UniProt P08253). The text has this:
(§1) Inhibition of IC50 using matrix metalloproteinase.

The target in assay [2] is T1, Matrix metalloproteinase-14 [1-20,P8S] (Homo sapiens, UniProt P50281, P8S).
T1 construct: 1-20
From the text: as §1

Assay [3] addresses T2, Matrix metalloproteinase-25 (Homo sapiens, UniProt Q9NPA2).
T2 sequence (Q9NPA2 whole entry): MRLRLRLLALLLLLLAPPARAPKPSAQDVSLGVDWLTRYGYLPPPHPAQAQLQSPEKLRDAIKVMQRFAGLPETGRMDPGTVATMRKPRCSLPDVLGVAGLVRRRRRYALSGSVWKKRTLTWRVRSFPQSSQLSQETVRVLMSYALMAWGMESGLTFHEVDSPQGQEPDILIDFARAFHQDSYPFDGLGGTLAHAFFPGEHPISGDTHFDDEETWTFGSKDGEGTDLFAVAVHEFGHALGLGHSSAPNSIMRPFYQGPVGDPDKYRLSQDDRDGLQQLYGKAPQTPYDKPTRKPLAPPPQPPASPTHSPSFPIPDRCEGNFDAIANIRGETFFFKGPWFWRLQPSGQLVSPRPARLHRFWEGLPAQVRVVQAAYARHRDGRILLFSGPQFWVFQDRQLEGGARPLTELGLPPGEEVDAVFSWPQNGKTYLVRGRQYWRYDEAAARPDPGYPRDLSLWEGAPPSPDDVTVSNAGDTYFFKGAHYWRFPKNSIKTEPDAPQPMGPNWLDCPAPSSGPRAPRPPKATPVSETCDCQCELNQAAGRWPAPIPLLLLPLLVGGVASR
From the text: as §1

The target in assay [4] is Matrix metalloproteinase-9 (Homo sapiens, UniProt P14780).
Sequence of Matrix metalloproteinase-9 (P14780 whole entry): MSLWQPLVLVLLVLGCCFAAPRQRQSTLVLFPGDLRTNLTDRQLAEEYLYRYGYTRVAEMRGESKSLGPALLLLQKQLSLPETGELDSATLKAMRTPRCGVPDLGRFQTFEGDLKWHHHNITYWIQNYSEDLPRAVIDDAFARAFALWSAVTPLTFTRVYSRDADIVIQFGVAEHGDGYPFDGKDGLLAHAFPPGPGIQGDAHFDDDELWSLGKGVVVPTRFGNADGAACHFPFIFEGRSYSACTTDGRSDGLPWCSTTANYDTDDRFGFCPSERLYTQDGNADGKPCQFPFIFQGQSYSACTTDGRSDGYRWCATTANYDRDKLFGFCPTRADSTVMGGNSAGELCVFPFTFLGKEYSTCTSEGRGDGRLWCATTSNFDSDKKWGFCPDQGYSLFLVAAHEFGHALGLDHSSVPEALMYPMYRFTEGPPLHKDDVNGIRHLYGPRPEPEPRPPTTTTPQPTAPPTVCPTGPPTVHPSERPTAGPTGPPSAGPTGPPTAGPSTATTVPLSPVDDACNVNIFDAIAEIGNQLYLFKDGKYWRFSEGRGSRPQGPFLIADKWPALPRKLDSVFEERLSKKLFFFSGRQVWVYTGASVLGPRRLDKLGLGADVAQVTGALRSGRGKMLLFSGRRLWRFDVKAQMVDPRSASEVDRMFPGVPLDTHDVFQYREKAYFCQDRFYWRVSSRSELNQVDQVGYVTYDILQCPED
From the text: as §1

The term IC50 denotes the concentration that gives 50% inhibition.

Sequence of 72 kDa type IV collagenase (P08253 whole entry): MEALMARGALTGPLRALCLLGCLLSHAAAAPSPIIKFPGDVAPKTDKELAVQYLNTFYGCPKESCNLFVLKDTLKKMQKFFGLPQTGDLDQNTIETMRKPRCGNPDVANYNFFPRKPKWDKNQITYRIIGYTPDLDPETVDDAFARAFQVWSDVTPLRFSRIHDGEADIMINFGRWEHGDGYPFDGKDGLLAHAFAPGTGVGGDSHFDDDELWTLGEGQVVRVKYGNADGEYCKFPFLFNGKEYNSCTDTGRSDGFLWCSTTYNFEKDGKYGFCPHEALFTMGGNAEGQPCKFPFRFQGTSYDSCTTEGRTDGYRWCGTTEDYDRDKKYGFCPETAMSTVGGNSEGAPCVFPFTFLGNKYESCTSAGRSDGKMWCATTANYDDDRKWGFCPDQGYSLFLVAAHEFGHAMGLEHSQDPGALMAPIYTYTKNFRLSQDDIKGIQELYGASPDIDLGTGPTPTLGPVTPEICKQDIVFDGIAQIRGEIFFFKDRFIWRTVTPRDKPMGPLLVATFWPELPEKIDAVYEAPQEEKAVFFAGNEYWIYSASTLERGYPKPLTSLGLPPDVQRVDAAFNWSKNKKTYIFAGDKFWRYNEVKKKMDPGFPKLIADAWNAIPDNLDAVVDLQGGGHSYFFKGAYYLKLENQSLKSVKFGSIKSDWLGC

As for `O=C(CCS(=O)(=O)c1ccccc1)NO` [BI-92G11], the IC50 in assay [1] is 1.9 µM; in assay [2], 10.9 µM; in assay [3] it was 0.9 µM; in assay [4], greater than 50 µM.
Taken in the same sequence, the figures for `CCOc1ccc(-c2ccccc2C(=O)NO)cc1` [BI-102C8] were greater than 100 µM, greater than 100 µM, 2.5 µM and greater than 100 µM.
